One substance from patent US20230044248A1, “COMBINED INHIBITION OF PD-1, TGFBeta AND ATM TOGETHER WITH RADIOTHERAPY FOR THE TREATMENT OF CANCER” (ARES TRADING S.A., priority 2019, published 2023) can be followed below.

Test [1] concerns 4T1 cells. The test can be described thus: Example 2: dosing schedule of Compound A in the triple combination, 4T1 mammary tumor model. Conditions: dual combination without Compound A.
Procedure: BALB/c mice were inoculated intramuscularly (i.m.) with 0.5×10^5 4T1 cells (day −7) and treated (n=10 mice/group) with isotype control (400 μg i.v.; day 0, 2, 4)+vehicle control (0.2 mL, p.o., day 0-17), bintrafusp alfa (492 μg i.v.; day 0, 2, 4)+RT (8 Gy, day 0-3), or bintrafusp alfa+RT+Compound A (100 mg/kg, p.o, days 0-3, days 0-10, or day 0-17). Tumor volumes were measured twice weekly and presented as (A) mean±SEM or (B) individual tumor volumes. P-values were calculated by two-way RM ANOVA with Tukey's post-test. (C) For survival analysis, mice were sacrificed when tumor volumes reached ≈2000 mm^3 and median survival times were calculated.
The effect of different dosing schedules of Compound A on the antitumor activity of the triple combination therapy was evaluated in the 4T1 mammary tumor model. […]
(§1) Tumor volumes were calculated with the following formula: tumor volume (mm^3)=tumor length×width×height×0.5236. Tumor growth inhibition (TGI) was calculated with the following formula: TGI (%)=[1−(Ti−T0)/(Vi−V0)]×100, where Ti is the average tumor volume (mm^3) of a treatment group on a given day, TO is the average tumor volume of the treatment group on the first day of treatment, Vi is the average tumor volume of the vehicle control group on the same day as Ti, and V0 is the average tumor volume of the vehicle control group on the first day of treatment. […]
In test [2] the test system is 4T1 cells. Nature of the test: Example 3: triple combination versus dual and monotherapy controls, 4T1 mammary tumor model. Conditions: day 18.
Procedure: BALB/c mice were inoculated intramuscularly (i.m.) with 0.5×10^5 4T1 cells (day −7) and treated (n=10 mice/group) with isotype control (400 μg i.v.; day 0, 2, 4)+vehicle control (0.2 mL, p.o., day 0-4), bintrafusp alfa (492 μg i.v.; day 0, 2, 4)+vehicle control, RT (8 Gy, day 0-3)+isotype control+vehicle control, Compound A (100 mg/kg, p.o, days 0-4)+isotype control, bintrafusp alfa+RT, bintrafusp alfa+Compound A, RT+Compound A, or bintrafusp alfa+RT+Compound A. Tumor volumes were measured twice weekly and presented as (A) mean±SEM or (B) individual tumor volumes. P-values were calculated by two-way RM ANOVA with Tukey's post-test. (C) For survival analysis, mice were sacrificed when tumor volumes reached ≈2000 mm^3 and median survival times were calculated. […]
as §1
For test [3], the system named is 4T1 cells. The test can be described thus: Example 1: bintrafusp alfa, RT and Compound A in the 4T1 mammary tumor model. Conditions: mice sacrificed at tumor volume ≈2000 mm^3; Compound A 100 mg/kg p.o. day 0-10 where given. It counts as in vivo, BALB/c mice.
The test system of test [4] is 4T1 cells. The test can be described thus: Example 4: triple combination with various RT doses versus bintrafusp alfa+RT, 4T1 mammary tumor model. Conditions: RT 8Gy, QDx4.
Procedure: Balb/c mice were inoculated with 4T1 cells (0.5×10^6) in the right thigh muscle (day −7). At day 0, when average tumor volumes reached 150 mm^3, mice were treated (n=10 mice/group) with isotype control (400 μg i.v.; Days 0, 2, 4), Bintrafusp alfa (492 μg/mouse i.v.; Days 0, 2, 4)+RT (8Gy, QDx4), or bintrafusp alfa+Compound A (100 mg/kg p.o., QDx4)+RT (8Gy or 6Gy or 4Gy or 2Gy, QDx4). Tumor volumes were measured twice weekly and presented as mean±SEM. P-values were calculated by two-way ANOVA with Sidack's or Tukey's post-test. P-values comparing median survival were calculated with the Log-rank (Mantel-Cox) test.
Treatment was initiated on day 0 when average tumor volume reached ˜150 mm^3. Mice were sacrificed when tumor volumes reached ˜2500 mm^3. […]
Tumor volumes were calculated with the following formula: tumor volume (mm^3)=tumor length×width×height×0.5236.
To compare the percentage survival between different treatment groups, Kaplan-Meier survival curves were generated. Body weight was measured twice weekly and mice were sacrificed when their tumor volume exceeded 2,000 mm^3.
Statistical analyses were performed using GraphPad Prism Software, version 8.0 or 8.0.1. […] A Kaplan-Meier plot was generated to show survival by treatment group and significance was assessed by log-rank (Mantel-Cox) test.

On to “bintrafusp alfa and RT: dual combination therapy of bintrafusp alfa with radiotherapy (RT)”, for which the median survival in the test with 4T1 cells [1], with 4T1 cells [3] and in the test on 4T1 cells [4] was 26 days each time. The “antitumor activity of dual combination therapy relative to the respective monotherapies” value with 4T1 cells [2] is “enhanced antitumor activity”.
